This is an account of results in patent publication US12209096B2, “Compounds and compositions for inducing chondrogenesis” (NOVARTIS AG, priority 2017, dated 2025).

Like-named read-outs stand apart in the source and are kept apart here.

This experiment relates to NHACs. The experiment can be described thus: calcium flux assay. It is filed as cell-based, human. The conditions noted are these: for Emax: read-out: (A) % Efficacy. The gist of the method:
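Normal human articular chondrocytes plated at 2000 cells/well and loaded 24 h later with Calcium 5 dye in HBSS/HEPES with 5 mM probenecid for 1 h at room temperature. Test compound added at indicated dose; fluorescence (ex 470–495/em 515–575 nm) recorded on FLIPR before and after addition.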
For orientation: Calcium assays in cells follow changes in intracellular calcium, usually with a dye or a luminescent sensor.

`Cc1cc([C@H]2[C@H]3O[C@H]([C@@H]4C[C@@H]43)[C@@H]2C(=O)Nc2cccc(C(F)(F)F)c2)ccn1` (racemic) [Example 121, rac-(1S,2S,4R,5R,6R,7S)-7-(2-methylpyridin-4-yl)-N-(3-(trifluoromethyl)phenyl)-8-oxatricyclo[3.2.1.0^2,4]octane-6-carboxamide]: under “Homo sapiens”, the EC50 amounted to 26 µM and the Emax was determined as 353%.
In the same order, the values of `Cc1ccc([C@H]2[C@H]3O[C@H](C[C@@H]3O)[C@H]2C(=O)Nc2ccc(Cl)c(Cl)c2)cn1` [Example 48, (1R,2S,3S,4R,5S)—N-(3,4-dichlorophenyl)-5-hydroxy-3-(6-methylpyridin-3-yl)-7-oxabicyclo[2.2.1]heptane-2-carboxamide] are 22 µM and 80%.
Take `COc1cc([C@H]2[C@H]3O[C@H](C[C@H]3F)[C@H]2C(=O)Nc2ccc(Cl)c(Cl)c2)ccn1` [Example 65, (1R,2S,3S,4R,5R)—N-(3,4-dichlorophenyl)-5-fluoro-3-(2-methoxypyridin-4-yl)-7-oxabicyclo[2.2.1]heptane-2-carboxamide]: for the setting “Homo sapiens”, the concentration giving a half-maximal response (EC50) stood at 18 µM and the Emax is 169%.
Regarding `O=C(Nc1ccc(Cl)c(Cl)c1)[C@H]1[C@@H]2O[C@@H]([C@H]3C[C@H]32)[C@@H]1c1cnc(F)nc1` [Example 129, (1S,2S,4R,5R,6R,7S)—N-(3,4-dichlorophenyl)-7-(2-fluoropyrimidin-5-yl)-8-oxatricyclo[3.2.1.0^2,4]octane-6-carboxamide], under “Homo sapiens”, the EC50 is 10 µM and the Emax turned out to be 146%.
In the same order, the values of `COc1ccc(NC(=O)[C@@H]2[C@@H]3O[C@@H]([C@H]4C[C@H]43)[C@@H]2c2ccnc(F)c2F)cn1` [Example 34, (1S,2S,4R,5R,6S,7S)-7-(2,3-difluoropyridin-4-yl)-N-(6-methoxypyridin-3-yl)-8-oxatricyclo[3.2.1.0^2,4]octane-6-carboxamide] are > 50 µM and 3%.
`O=C(Nc1ccc(Cl)c(Cl)c1)[C@H]1[C@@H]2O[C@@H]([C@H]3C[C@H]32)[C@@H]1c1cncnc1` (single isomer, unassigned) [Example 126a]: for the setting “Homo sapiens”, the EC50 amounted to 5.4 µM and the Emax was found to be 233%.
Regarding `Nc1ncc([C@H]2[C@H]3O[C@H](C[C@@H]3F)[C@@H]2C(=O)Nc2ccc(Cl)c(Cl)c2)cn1` [Example 113, (1R,2R,3S,4R,5S)-3-(2-aminopyrimidin-5-yl)-N-(3,4-dichlorophenyl)-5-fluoro-7-oxabicyclo[2.2.1]heptane-2-carboxamide], under “Homo sapiens”, the concentration giving a half-maximal response (EC50) is 30 µM and the Emax stood at 103%.
Consider `Cc1cc([C@@H]2[C@@H]3O[C@@H]([C@H]4C[C@H]43)[C@@H]2C(=O)Nc2cnc(Cl)c(Cl)c2)ccn1` (single isomer, unassigned) [Example 46], for which, under “Homo sapiens”, the EC50 was > 50 µM and the Emax is 0%.
As to `Cc1cc([C@H]2[C@H]3O[C@H]([C@@H]4C[C@@H]43)[C@@H]2C(=O)Nc2ccc(Cl)c(C#N)c2)ccn1` [Example 66, (1S,2S,4R,5R,6R,7S)—N-(4-chloro-3-cyanophenyl)-7-(2-methylpyridin-4-yl)-8-oxatricyclo[3.2.1.0^2,4]octane-6-carboxamide], under “Homo sapiens”, the concentration giving a half-maximal response (EC50) is 20 µM and the Emax is 179%.
Regarding `Cc1ccc([C@@H]2[C@@H](C(=O)Nc3ccc(Cl)c(Cl)c3)[C@@H]3O[C@H]2C[C@H]3F)cn1` [Example 116, (1S,2R,3S,4S,6R)—N-(3,4-dichlorophenyl)-6-fluoro-3-(6-methylpyridin-3-yl)-7-oxabicyclo[2.2.1]heptane-2-carboxamide], for the setting “Homo sapiens”, the EC50 worked out at 23 µM and the Emax was determined as 58%.
In the same order, the values of `Cc1cc([C@H]2[C@H]3O[C@H](C[C@@H]3F)[C@H]2C(=O)Nc2cccc(C(F)(F)F)c2)ccn1` [Example 17, (1R,2S,3S,4R,5S)-5-fluoro-3-(2-methylpyridin-4-yl)-N-[3-(trifluoromethyl)phenyl]-7-oxabicyclo[2.2.1]heptane-2-carboxamide] are > 50 µM and 0%.
For `O=C(Nc1cnc(Cl)c(Cl)c1)[C@@H]1[C@@H](c2ccnc(F)c2)[C@H]2O[C@@H]1C[C@H]2NCCO` [Example 176, (1R,2R,3S,4R,5R)—N-(5,6-dichloropyridin-3-yl)-3-(2-fluoropyridin-4-yl)-5-((2-hydroxyethyl)amino)-7-oxabicyclo[2.2.1]heptane-2-carboxamide], under “Homo sapiens”, the EC50 turned out to be 25 µM and the Emax is 51%.
For the compound “(1R,2S,3S,4R,5S)-5-hydroxy-3-(pyridin-4-yl)-N-[3-(trifluoromethyl)phenyl]-7-oxabicyclo[2.2.1]heptane-2-carboxamide [Example 11]”, the “(A) % Efficacy” value came to 27% and the EC50 is > 50 µM.
With `O=C(Nc1ccc(Cl)c(Cl)c1)[C@H]1[C@@H](c2ccnc(F)c2F)[C@H]2O[C@@H]1C[C@@H]2O` [Example 59, (1R,2S,3S,4R,5S)—N-(3,4-dichlorophenyl)-3-(2,3-difluoropyridin-4-yl)-5-hydroxy-7-oxabicyclo[2.2.1]heptane-2-carboxamide], where the note is “Homo sapiens”, the concentration giving a half-maximal response (EC50) came out at 1.2 µM and the Emax turned out to be 254%.
As to `Cc1cc([C@H]2[C@H]3O[C@H](C[C@H]3F)[C@H]2C(=O)Nc2ccc(Cl)c(Cl)c2)ccn1` [Example 13, (1R,2S,3S,4R,5R)-N-(3,4-dichlorophenyl)-5-fluoro-3-(2-methylpyridin-4-yl)-7-oxabicyclo[2.2.1]heptane-2-carboxamide], under “Homo sapiens”, the EC50 amounted to 4.5 µM and the Emax was 68%.
In the case of `COc1cc([C@@H]2[C@@H](C(=O)Nc3ccc(Cl)c(Cl)c3)[C@@H]3O[C@H]2C[C@H]3F)ccn1` [Example 104, (1S,2R,3S,4S,6R)—N-(3,4-dichlorophenyl)-6-fluoro-3-(2-methoxypyridin-4-yl)-7-oxabicyclo[2.2.1]heptane-2-carboxamide], under “Homo sapiens”, the EC50 came to 14 µM and the Emax was found to be 96%.
For `Cc1cc([C@@H]2[C@@H](C(=O)Nc3ccc(Cl)c(Cl)c3)[C@@H]3O[C@H]2C[C@@H]3F)ccn1` (single isomer, unassigned) [Example 93], where the note is “Homo sapiens”, the concentration for a half-maximal effect (EC50) is > 50 µM and the Emax was found to be 7%.
`Cc1cc([C@H]2[C@H]3O[C@H]([C@@H]4C[C@@H]43)[C@H]2C(=O)Nc2cnc(Cl)c(Cl)c2)ccn1` (single isomer, unassigned) [Example 45]: where the note is “Homo sapiens”, the EC50 was determined as 14 µM and the Emax came to 32%.
In the same order, the values of `O=C(Nc1ccc(Cl)c(Cl)c1)[C@H]1[C@@H]2O[C@@H]([C@H]3C[C@H]32)[C@@H]1c1cncnc1` (racemic) [Example 126, rac-(1S,2S,4R,5R,6R,7S)—N-(3,4-dichlorophenyl)-7-(pyrimidin-5-yl)-8-oxatricyclo[3.2.1.0^2,4]octane-6-carboxamide] are 10 µM and 212%.
With `Cc1ncc([C@H]2[C@H]3O[C@H]([C@@H]4C[C@@H]43)[C@@H]2C(=O)Nc2ccc(Cl)c(Cl)c2)cn1` [Example 135, (1S,2S,4R,5R,6R,7S)—N-(3,4-dichlorophenyl)-7-(2-methylpyrimidin-5-yl)-8-oxatricyclo[3.2.1.0^2,4]octane-6-carboxamide], where the note is “Homo sapiens”, the concentration for a half-maximal effect (EC50) was 16 µM and the Emax was determined as 237%.
In the same order, the values of `O=C(Nc1ccc(Cl)c(Cl)c1)[C@H]1[C@H]2O[C@H]([C@@H]3C[C@@H]32)[C@H]1c1ccnc(F)c1F` (single isomer, unassigned) [Example 30] are 10 µM and 133%.
Take `Cc1cc([C@H]2[C@H]3O[C@H](C[C@@H]3F)[C@H]2C(=O)Nc2cnc(Cl)c(Cl)c2)ccn1` [Example 18, (1R,2S,3S,4R,5S)-N-(5,6-dichloropyridin-3-yl)-5-fluoro-3-(2-methylpyridin-4-yl)-7-oxabicyclo[2.2.1]heptane-2-carboxamide]: under “Homo sapiens”, the EC50 was > 50 µM and the Emax is 0%.
`Cc1cc([C@@H]2[C@@H](C(=O)Nc3ccc(Cl)c(Cl)c3)[C@@H]3O[C@H]2C[C@H]3F)ccn1` [Example 106, (1S,2R,3S,4S,6R)—N-(3,4-dichlorophenyl)-6-fluoro-3-(2-methylpyridin-4-yl)-7-oxabicyclo[2.2.1]heptane-2-carboxamide]: for the setting “Homo sapiens”, the half-maximal effective concentration (EC50) was determined as 24 µM and the Emax amounted to 84%.
For `O=C(Nc1ccc(Cl)c(Cl)c1)[C@H]1[C@@H](c2ccnc(F)c2)[C@H]2O[C@@H]1C[C@@H]2F` [Example 22, (1R,2S,3S,4R,5S)-N-(3,4-dichlorophenyl)-5-fluoro-3-(2-fluoropyridin-4-yl)-7-oxabicyclo[2.2.1]heptane-2-carboxamide], where the note is “Homo sapiens”, the 50% effective concentration (EC50) amounted to 4.2 µM and the Emax was 128%.
As for `CN(C)c1ncc([C@H]2[C@H]3O[C@H](C[C@@H]3O)[C@H]2C(=O)Nc2ccc(Cl)c(Cl)c2)cn1` [Example 55, (1R,2S,3S,4R,5S)—N-(3,4-dichlorophenyl)-3-(2-(dimethylamino)pyrimidin-5-yl)-5-hydroxy-7-oxabicyclo[2.2.1]heptane-2-carboxamide], where the note is “Homo sapiens”, the 50% effective concentration (EC50) is > 50 µM and the Emax stood at 0%.
In the same order, the values of `Cc1cc([C@H]2[C@H]3O[C@H]([C@H](O)[C@@H]3O)[C@@H]2C(=O)Nc2ccnc(C(F)(F)F)c2)ccn1` [Example 161, (1S,2R,3S,4R,5S,6R)-5,6-dihydroxy-3-(2-methylpyridin-4-yl)-N-(2-(trifluoromethyl)pyridin-4-yl)-7-oxabicyclo[2.2.1]heptane-2-carboxamide] are > 50 µM and 29%.
`O=C(Nc1ccc(Cl)c(Cl)c1)[C@@H]1[C@@H](c2cnc(F)nc2)[C@H]2O[C@@H]1C[C@@H]2O` [Example 151, (1R,2R,3S,4R,5S)—N-(3,4-dichlorophenyl)-3-(2-fluoropyrimidin-5-yl)-5-hydroxy-7-oxabicyclo[2.2.1]heptane-2-carboxamide]: under “Homo sapiens”, the EC50 is > 50 µM and the Emax worked out at 0%.
With `O=C(Nc1ccc(Cl)c(Cl)c1)[C@H]1[C@@H](c2cccc(C(F)(F)F)n2)[C@H]2O[C@@H]1C[C@@H]2O` [Example 50, (1R,2S,3S,4R,5S)—N-(3,4-dichlorophenyl)-5-hydroxy-3-(6-(trifluoromethyl)pyridin-2-yl)-7-oxabicyclo[2.2.1]heptane-2-carboxamide], for the setting “Homo sapiens”, the EC50 was 21 µM and the Emax is 308%.

As usually defined, the EC50 is the midpoint of the concentration-response curve.
